In PMC9505023, “Isatin Bis-Indole and Bis-Imidazothiazole Hybrids: Synthesis and Antimicrobial Activity” (Molecules, 2022):
Values joined by “and” are separate entries in the source; they are usually repeats but may differ in a detail not shown here. Identical values can stand only once.

How the values were obtained:
[1] = test system: Staphylococcus aureus ATCC 25923; experiment: Microdilution broth susceptibility test, S. aureus reference strain; conditions: for activity at 100 µM: read-out: S. aureus microbial growth
Method: The in vitro antimicrobial activity of the isatin derivatives was evaluated by a microdilution broth method in accordance with the guidelines provided by a number of international committees, such as The Clinical Laboratory Standards Institute (CLSI) in the U.S. or The European Committee on Antimicrobial Susceptibility Testing (EUCAST) in Europe reference bacterial strains, including Staphylococcus aureus (ATCC 25923) and Escherichia coli (ATCC 25922) and Candida albicans (ATCC 10231), were purchased from the American Type Culture Collection (ATCC); they were routinely cultured in 5% sheep blood agar plate and in Sabauraud dextrose agar, respectively, at 37 °C. Clinical isolates, identified by MALDI-TOF MS (Bruker Daltonik, GmbH, Bremen, Germany), were profiled for their antibiotic susceptibility by using the Vitek2 semiautomated system (bioMerieux, Craponne, France) and according to EUCAST guidelines [EUCAST: The European Committee on Antimicrobial Susceptibility Testing. Breakpoint tables for interpretation of MICs and zone diameters. Version 12, 2022, http://www.eucast.org (accessed on 1 January 2022)].
Microbial inocula were prepared at 0.5 McFarland in PBS and, subsequently, bacterial suspensions were diluted 1:200 in Mueller–Hinton broth (Sigma-Aldrich, St. Louis, MO, USA), while fungal inoculum was diluted 1:20 in RPMI-1640 medium (Gibco®, ThermoFisher Scientific Inc., Waltham, MA, USA), containing glucose 2%, 0.3% levo-glutamine buffered to pH 7.0 with 0.165 M 3-(N-morpholino)propanesulfonic acid (MOPS). A total of 100 µL of these microbial suspensions were introduced in a 96-well microplate and treated with 100 µL of the compound at 100 µM or with two-fold serial dilutions of the compound in the range of 400 µM–3.12 µM. All compounds were previously dissolved in 100% DMSO at a concentration of 20 mM. Experiments included controls used to measure the microbial growth in regular medium (positive control) and to check the background turbidity of the reagents and the sterility of the procedures (negative controls). In addition, microbial growths were assessed in the presence of the DMSO solvent in the range of 0.015–2%. The inoculated plate was incubated at 37 °C for 24 h, and subsequently, the optical density at 630 nm was measured by the Multiskan Ascent microplate reader (Thermo Fisher Scientific Inc., Waltham, MA, USA). […] All the experiments were performed on triplicate in at least two independent assays.

[2] = test system: Escherichia coli ATCC 25922; experiment: Microdilution broth susceptibility test, E. coli reference strain; type: cell-based; conditions: ATCC25922, 24 h, growth as percentage relative to positive growth control, mean ± SD, read-out: E. coli microbial growth
Text: (§1) Breakpoint tables for interpretation of MICs and zone diameters.

[3] = test system: Candida albicans ATCC 10231; experiment: Microdilution broth susceptibility test, C. albicans reference strain; type: cell-based; conditions: for activity at 100 µM: Candida albicans, ATCC10231, 24 h, growth as percentage relative to positive growth control, mean ± SD, read-out: C. albicans microbial growth
Text: as §1

Vero cells (ATCC CCL-81) = experiment: Cytotoxicity test, WST8-based CCK-8 cell viability; parameters: species or system African green monkey; Vero cell proliferation: unit: %; conditions: 100 µM; for Vero cell proliferation: 48 h, cell viability as percentage relative to untreated controls, mean ± SD
Method: African green monkey kidney cells (Vero ATCC CCL-81) obtained from ATCC were cultured in Eagle’s minimal essential medium (MEM) (Sigma-Aldrich, St. Louis, MO, USA), supplemented with 10% fetal bovine serum (FBS) (Carlo Erba Reagents, Milan, Italy), 100 U/mL penicillin, and 100 µg/mL streptomycin at 37 °C with 5% CO2. For the experiments, the cells were seeded into 96-well plates at 10^4 cells/well and incubated at 37 °C for 24 h. Following washes with PBS, the cell monolayer was incubated with 100 µL of medium containing 100 µM of the derivatives. Both untreated cells and cells incubated with the solvent were included in each experiment as controls. The cell viability was assessed by a WST8-based assay according to the manufacturer’s instructions (CCK-8, Cell Counting Kit-8, Dojindo Molecular Technologies, Rockville, MD, USA). After 48 h of incubation, the culture medium was removed from each well, the monolayer was washed with PBS, and 100 µL of fresh medium containing 10 µL of CCK-8 solution were added. Following 2 h at 37 °C, the absorbance was measured at 450/630 nm; data were calculated as the percentage of the cell viability relative to the untreated controls.

[4] = test system: S. aureus clinical isolates (MSSA and MRSA); experiment: Microdilution broth susceptibility test, S. aureus clinical isolates; type: cell-based; conditions: Staphylococcus aureus, 10 clinical isolates, read-out: IC50 against S. aureus clinical isolates (range over isolates)
Text: as §1

[5] = Staphylococcus aureus, ATCC25923, 24 h

With `Cc1cc(C)c2c(c1)NC(=O)C2(C1CNc2ccccc21)C1CNc2ccccc21` (stereo not shown) [4e, 4′,6′-dimethyl-[3,3′:3′,3″-terindolin]-2′-one] the activity at 100 µM [1, 5] was 71.2 ± 8.7%, the activity at 100 µM [2] was 103 ± 1.4% and the activity at 100 µM [3] was 68.8 ± 2.7%. The “Cytotoxicity on Vero cells in words” value (Vero cells (ATCC CCL-81)) was “affect Vero cells proliferation” and the Vero cell proliferation (Vero cells (ATCC CCL-81)) was 8.5 ± 0.3.

With `O=C1Nc2c(Cl)ccc(Cl)c2C1(C1CNc2ccccc21)C1CNc2ccccc21` (stereo not shown) [4f, 4′,7′-dichloro-[3,3′:3′,3″-terindolin]-2′-one] the activity at 100 µM [1, 5] was 75.8 ± 1.8%, the activity at 100 µM [2] was 96.9 ± 1.7% and the activity at 100 µM [3] was 107 ± 4.2%. The “Cytotoxicity on Vero cells in words” value (Vero cells (ATCC CCL-81)) was “affect Vero cells proliferation” and the Vero cell proliferation (Vero cells (ATCC CCL-81)) was 9.8 ± 0.5.

Work on `COc1ccc(CN2C(=O)C(C3CNc4ccccc43)(C3CNc4ccccc43)c3cc(OC)ccc32)cc1` (stereo not shown) [4g, 5′-methoxy-1′-(4-methoxybenzyl)-[3,3′:3′,3″-terindolin]-2′-one] yielded an activity at 100 µM [1, 5] of 86.2 ± 5.7%, an activity at 100 µM [2] of 100.3 ± 0.7% and an activity at 100 µM [3] of 50.6 ± 6.6%. For the same molecule, the Vero cell proliferation (Vero cells (ATCC CCL-81)) was 107.9 ± 8.9.

In the case of `O=C1Nc2cccc(I)c2C1(C1CNc2ccccc21)C1CNc2ccccc21` (stereo not shown) [4h, 4′-iodo-[3,3′:3′,3″-terindolin]-2′-one], the activity at 100 µM [1, 5] is reported as 72.8 ± 6.1%, the activity at 100 µM [2] is reported as 82 ± 1.5% and the “Antifungal activity against C. albicans in words” value ([3]; 100 µM (48.93 µg/mL)) is reported as “significantly reduced the growth of C. albicans”. For the same molecule, the activity at 100 µM [3] was 23.2 ± 2.1%, the “Cytotoxicity on Vero cells in words” value (Vero cells (ATCC CCL-81)) was “affect Vero cells proliferation” and the Vero cell proliferation (Vero cells (ATCC CCL-81)) was 10.6 ± 0.3.

`O=C1Nc2cc(OC(F)(F)F)ccc2C1(C1CNc2ccccc21)C1CNc2ccccc21` (stereo not shown) [4l, 6′-(trifluoromethoxy)-[3,3′:3′,3″-terindolin]-2′-one] showed an activity at 100 µM [1, 5] of 72 ± 2.2%, an activity at 100 µM [2] of 103 ± 1.6% and an activity at 100 µM [3] of 93.3 ± 2.1%. The Vero cell proliferation (Vero cells (ATCC CCL-81)) was 8.9 ±0.4.

Molecule `COc1ccc2c(c1)C(C1(C3CNc4ccc(OC)cc43)C(=O)Nc3cc(OC)c(OC)c(OC)c31)CN2` (stereo not shown) [5d, 4′,5,5′,5″,6′-pentamethoxy-[3,3′:3′,3″-terindolin]-2′-one] has an activity at 100 µM [1, 5] of 89.1 ± 7%, an activity at 100 µM [2] of 117 ± 1.1% and an activity at 100 µM [3] of 120 ± 2%. For the same molecule, the Vero cell proliferation (Vero cells (ATCC CCL-81)) was 54.3 ± 0.9.

With `COc1ccc2c(c1)C(C1(C3CNc4ccc(OC)cc43)C(=O)N(Cc3ccc(Cl)cc3)c3ccccc31)CN2` (stereo not shown) [5m, 1′-(4-chlorobenzyl)-5,5″-dimethoxy-[3,3′:3′,3″-terindolin]-2′-one] the activity at 100 µM [1, 5] was 95.1 ± 3.9%, the activity at 100 µM [2] was 113 ± 0.6% and the activity at 100 µM [3] was 88.2 ± 5.2%. It also gave a Vero cell proliferation (Vero cells (ATCC CCL-81)) of 87.0 ± 5.7.

For `O=C1Nc2ccccc2C1(c1c(Cl)nc2sccn12)c1c(Cl)nc2sccn12` [6c, 3,3-bis(6-chloroimidazo[2,1-b]thiazol-5-yl)indolin-2-one], the activity at 100 µM [1, 5] was 95.4 ± 2.4%, the activity at 100 µM [2] was 117 ± 3.1% and the activity at 100 µM [3] was 126 ± 2.1%. For the same molecule, the Vero cell proliferation (Vero cells (ATCC CCL-81)) was 92.8 ± 4.8.

`COc1ccc(CN2C(=O)C(c3c(Cl)nc4sccn34)(c3c(Cl)nc4sccn34)c3cc(OC)ccc32)cc1` [6g, 3,3-bis(6-chloroimidazo[2,1-b]thiazol-5-yl)-5-methoxy-1-(4-methoxybenzyl)indolin-2-one] showed an activity at 100 µM [1, 5] of 67.4 ± 8.4%, an activity at 100 µM [2] of 73.6 ± 9.1% and an activity at 100 µM [3] of 92.4 ± 3.6%. The Vero cell proliferation (Vero cells (ATCC CCL-81)) was 84.3 ± 0.9.

In the case of `COc1ccc2c(c1)C(c1c(Cl)nc3sccn13)(c1c(Cl)nc3sccn13)C(=O)N2` [6k, 3,3-bis(6-chloroimidazo[2,1-b]thiazol-5-yl)-5-methoxyindolin-2-one], the “Activity against S. aureus in words” value ([1]; 100 µM) is reported as “highly active”, the “Efficacy at the highest tested concentration in words” value ([1]; 400 µM) is reported as “completely inhibit bacterial growth” and the “Selectivity of antibacterial activity versus cytotoxicity in words” value ([1]; S. aureus growth compared with Vero cytotoxicity at 100 µM) is reported as “selective inhibitory property against the Gram-positive strain”. The IC50 ([1]; Staphylococcus aureus, ATCC25923, 24 h, read-out: IC50 against S. aureus) was 39.1 µg/mL and 80 µM, the activity at 100 µM [1, 5] was 43.4 ± 5.6% and the activity at 100 µM [2] was 103 ± 2.4%. It also gave an activity at 100 µM [3] of 104 ± 1.9%, a Vero cell proliferation (Vero cells (ATCC CCL-81)) of 70.9 ± 5.6 and an IC50 [4] of 73 to 85.3 µM.
